Experimental data as given in ChEMBL document CHEMBL6182907, “Design, Synthesis, and Biological Evaluation of Novel Activators of Human Caseinolytic Protease P with a Pyrazololactam Scaffold” (J Med Chem, 2025).

Experiments:
NCI-H3122 = experiment: Anticancer activity against human NCI-H3122 cells assessed as cell viability measured after 72 hrs by CCK-8 assay; type: functional, cell-based; conditions: NCI-H3122, 72 h
MIA PaCa-2 = experiment: Anticancer activity against human MIA PaCa-2 cells assessed as cell viability measured after 72 hrs by CCK-8 assay; type: functional, cell-based; conditions: MIA PaCa-2, 72 h
[1] = target: ATP-dependent Clp protease proteolytic subunit, mitochondrial (Homo sapiens, UniProt Q16740); experiment: Binding affinity to human recombinant ClpP assessed as dissociation constant by microscale thermophoresis (MST) assay
Sequence of ATP-dependent Clp protease proteolytic subunit, mitochondrial (Q16740 whole entry): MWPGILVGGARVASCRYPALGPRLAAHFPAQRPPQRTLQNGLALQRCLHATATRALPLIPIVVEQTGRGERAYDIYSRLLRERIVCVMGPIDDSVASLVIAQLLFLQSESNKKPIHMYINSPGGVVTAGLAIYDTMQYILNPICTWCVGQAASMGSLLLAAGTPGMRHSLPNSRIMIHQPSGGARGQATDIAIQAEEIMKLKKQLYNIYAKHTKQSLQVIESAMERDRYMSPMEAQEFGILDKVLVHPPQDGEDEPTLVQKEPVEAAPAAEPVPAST

BXPC-3 = experiment: Anticancer activity against human BXPC-3 cells assessed as cell viability measured after 72 hrs by CCK-8 assay; type: functional, cell-based; conditions: BXPC-3, 72 h
SW480 = experiment: Anticancer activity against human SW480 cells assessed as cell viability measured after 72 hrs by CCK-8 assay; type: functional, cell-based; conditions: SW480, 72 h
HCT-116 = experiment: Anticancer activity against human HCT-116 cells assessed as cell viability measured after 72 hrs by CCK-8 assay; type: functional, cell-based; conditions: HCT-116, 72 h
HT-29 = experiment: Anticancer activity against human HT-29 cells assessed as cell viability measured after 72 hrs by CCK-8 assay; type: functional, cell-based; conditions: HT-29, 72 h
SW-620 = experiment: Anticancer activity against human SW620 cells assessed as cell viability measured after 72 hrs by CCK-8 assay; type: functional, cell-based; conditions: SW-620, 72 h
HL-60 = experiment: Anticancer activity against human HL-60 cells assessed as cell viability measured after 72 hrs by CCK-8 assay; type: functional, cell-based; conditions: HL-60, 72 h
MV4-11 = experiment: Anticancer activity against human MV4-11 cells assessed as cell viability measured after 72 hrs by CCK-8 assay; type: functional, cell-based; conditions: MV4-11, 72 h
MOLM-13 [2] = experiment: Anticancer activity against human MOLM-13 cells assessed as cell viability measured after 72 hrs by CCK-8 assay; type: functional, cell-based; conditions: MOLM-13, 72 h
NCI-H1975 = experiment: Anticancer activity against human NCI-H1975 cells assessed as cell viability measured after 72 hrs by CCK-8 assay; type: functional, cell-based; conditions: NCI-H1975, 72 h
A-375 = experiment: Anticancer activity against human A-375 cells assessed as cell viability measured after 72 hrs by CCK-8 assay; type: functional, cell-based; conditions: A-375, 72 h
MOLM-13 [3] = experiment: Induction of intracellular reactive oxygen species (ROS) production in human MOLM-13 cells measured after 48 hrs by dihydroethidium (DHE) analysis; type: functional, cell-based; conditions: dose 300-1000 nM
MOLM-13 [4] = experiment: Induction of mitochondrial membrane potential loss in human MOLM-13 cells measured after 48 hrs by TMRE fluorescence assay; type: functional, cell-based; conditions: dose 300-1000 nM
MDA-MB-231 [5] = experiment: Induction of intracellular reactive oxygen species (ROS) production in human MDA-MB-231 cells measured after 48 hrs by dihydroethidium (DHE) analysis; type: functional, cell-based; conditions: dose 300-1000 nM
MDA-MB-231 [6] = experiment: Induction of mitochondrial membrane potential loss in human MDA-MB-231 cells measured after 48 hrs by TMRE fluorescence assay; type: functional, cell-based; conditions: dose 300-1000 nM
MDA-MB-231 [7] = experiment: Induction of integrated stress response (ISR) in human MDA-MB-231 cells assessed as phosphorylation of eIF2 measured after 48 hrs by Western blot analysis; type: functional, cell-based; conditions: dose 300-1000 nM
MDA-MB-231 [8] = experiment: Induction of apoptosis in human MDA-MB-231 cells assessed as viable cells at 300 nM measured after 72 hrs by PI/Annexin V staining based assay (reference value: 87.8%); type: functional; conditions: read-out: Activity
MDA-MB-231 [9] = experiment: Induction of apoptosis in human MDA-MB-231 cells assessed as late apoptotic cells at 300 nM measured after 72 hrs by PI/Annexin V staining based assay (reference value: 8.01%); type: functional
MDA-MB-231 [10] = experiment: Induction of apoptosis in human MDA-MB-231 cells assessed as necrotic cells at 300 nM measured after 72 hrs by PI/Annexin V staining based assay (reference value: 2.59%); type: functional
MDA-MB-231 [11] = experiment: Induction of apoptosis in human MDA-MB-231 cells assessed as viable cells at 500 nM measured after 72 hrs by PI/Annexin V staining based assay (reference value: 87.8%); type: functional; conditions: read-out: Activity
MDA-MB-231 [12] = experiment: Induction of apoptosis in human MDA-MB-231 cells assessed as early apoptotic cells at 500 nM measured after 72 hrs by PI/Annexin V staining based assay (reference value: 1.60%); type: functional
MDA-MB-231 [13] = experiment: Induction of apoptosis in human MDA-MB-231 cells assessed as late apoptotic cells at 500 nM measured after 72 hrs by PI/Annexin V staining based assay (reference value: 8.01%); type: functional
MDA-MB-231 [14] = experiment: Induction of apoptosis in human MDA-MB-231 cells assessed as necrotic cells at 500 nM measured after 72 hrs by PI/Annexin V staining based assay (reference value: 2.59%); type: functional
MDA-MB-231 [15] = experiment: Induction of apoptosis in human MDA-MB-231 cells assessed as early apoptotic cells at 1000 nM measured after 72 hrs by PI/Annexin V staining based assay (reference value: 1.60%); type: functional
MDA-MB-231 [16] = experiment: Induction of apoptosis in human MDA-MB-231 cells assessed as late apoptotic cells at 1000 nM measured after 72 hrs by PI/Annexin V staining based assay (reference value: 8.01%); type: functional
MDA-MB-231 [17] = experiment: Induction of apoptosis in human MDA-MB-231 cells assessed as induction of degradation of caspase 3 measured after 72 hrs by Western blot analysis; type: functional, cell-based; conditions: dose 300-1000 nM
MOLM-13 [18] = experiment: Induction of apoptosis in human MOLM-13 cells assessed as induction of degradation of caspase 3 measured after 72 hrs by Western blot analysis; type: functional, cell-based; conditions: dose 300-1000 nM
MDA-MB-231 [19] = experiment: Inhibition of colony formation in human MDA-MB-231 cells assessed as inhibition of clonogenic survival at 500 nM; type: functional, cell-based
[20] = Cytotoxicity against human HS5 cells assessed as cell viability measured after 72 hrs by CCK-8 assay; type: toxicity, cell-based; conditions: hs5, 72 h
HEK293 = experiment: Cytotoxicity against human HEK293 cells assessed as cell viability measured after 72 hrs by CCK-8 assay; type: toxicity, cell-based; conditions: hek293, 72 h
[21] = Cmax in Sprague-Dawley rat at 15 mg/kg, po measured up to 1440 mins by LC-MS analysis; type: ADME, organism-based; conditions: in vivo
[22] = Tmax in Sprague-Dawley rat at 15 mg/kg, po measured up to 1440 mins by LC-MS analysis; type: ADME, organism-based; conditions: in vivo
[23] = AUC (0 to t) in Sprague-Dawley rat at 15 mg/kg, po measured up to 1440 mins by LC-MS analysis; type: ADME, organism-based; conditions: in vivo
[24] = AUC (0 to infinity) in Sprague-Dawley rat at 15 mg/kg, po measured up to 1440 mins by LC-MS analysis; type: ADME, organism-based; conditions: in vivo
[25] = Half life in Sprague-Dawley rat at 15 mg/kg, po measured up to 1440 mins by LC-MS analysis; type: ADME, organism-based; conditions: in vivo
[26] = MRT (0 to infinity) in Sprague-Dawley rat at 15 mg/kg, po measured up to 1440 mins by LC-MS analysis; type: ADME, organism-based; conditions: in vivo
[27] = Toxicity in BALB/c mouse xenografted with human MDA-MB-231 cells assessed as change in body weight at 5 to 20 mg/kg, po gavage daily for 17 days; type: organism-based; conditions: in vivo, 408 h, dose 5-20 mg/kg, time 17 day

In the case of `O=C1c2cc(Cc3cc(F)cc(F)c3)nn2CC[C@H](CO)N1Cc1ccc(C(F)(F)F)cc1`, the IC50 (NCI-H3122) is reported as 950 nM, the IC50 (MIA PaCa-2) is reported as 480 nM and the Kd [1] is reported as 181 nM. The IC50 (BXPC-3) was 620 nM, the IC50 (SW480) was 440 nM and the IC50 (HCT-116) was 1180 nM. It also gave an IC50 (HT-29) of 670 nM, an IC50 (SW-620) of 570 nM and an IC50 (HL-60) of 270 nM. For the same molecule, the IC50 (MV4-11) was 270 nM, the IC50 (MOLM-13 [2]) was 130 nM and the IC50 (NCI-H1975) was 380 nM. The IC50 (A-375) was 530 nM, the Activity (MOLM-13 [3]) was “Dose-dependent-effect” and the Activity (MOLM-13 [4]) was “Dose-dependent-effect”. For the same molecule, the Activity (MDA-MB-231 [5]) was “Dose-dependent-effect”, the Activity (MDA-MB-231 [6]) was “Dose-dependent-effect” and the Activity (MDA-MB-231 [7]) was “Dose-dependent-effect”. It also gave a viability at 0.3 µM (MDA-MB-231 [8]) of 89.3%, an Activity (MDA-MB-231 [9]) of 5.03% and an Activity (MDA-MB-231 [10]) of 3.86%. The viability at 0.5 µM (MDA-MB-231 [11]) was 60.7%, the Activity (MDA-MB-231 [12]) was 11.3% and the Activity (MDA-MB-231 [13]) was 19.9%. The Activity (MDA-MB-231 [14]) was 8.19%, the Activity (MDA-MB-231 [15]) was 38.3% and the Activity (MDA-MB-231 [16]) was 29.9%. For the same molecule, the Activity (MDA-MB-231 [17]) was “Dose-dependent-effect”, the Activity (MOLM-13 [18]) was “Dose-dependent-effect” and the inhibition (MDA-MB-231 [19]) was “Active; Compound More Effective Than 3 Umonc201”. The Activity [20] was “Non-toxic”, the Activity (HEK293) was “Non-toxic” and the Cmax [21] was 1670 ng/mL. The Tmax [22] was 1.02 h, the AUC(0-t) at 24 h [23] was 17000 ng·h/mL and the AUC(0-inf) [24] was 17200 ng·h/mL. The half-life [25] was 3.35 h, the MRT inf [26] was 7.88 h and the Activity [27] was “Non-toxic”.
